# Test results reported in patent US20030143731A1, “Use of heterologous transcription factors in gene therapy” (ARIAD Gene Therapeutics, Inc., priority 1995, published 2003).
# Tests used:
# [1] = system: SEAP target gene in stably transfected HT1080 cells; test: Rapamycin-dependent SEAP production in stably transfected cell clone; format: cell-based, human; settings: stable clone, 100 nM rapamycin, SEAP assay length increased about 50-fold
# From the text: We generated stable cell lines by sequential transfection of a SEAP target gene and expression vectors for ZFHD1-3FKBP and 1FRB-p65, respectively. […] From this pool, we characterized several individual clones, many of which produced high levels of SEAP in response to rapamycin. […] In an attempt to rigorously quantitate background SEAP production and induction ratio in this clone, we performed a second set of assays in which the length of the SEAP assay was increased by a factor of approximately 50 to detect any SEAP activity in untreated cells. Under these conditions, mock transfected cells produced 47 arbitrary fluorescence units, while the transfected clone produced 54 units in the absence of rapamycin and over 90,000 units at 100 nM rapamycin. […]
# To simplify the task of stable transfection, we used a bicistronic expression vector that directs the production of both ZFHD1-3FKBP and 1FRB-p65 through the use of an internal ribosome entry sequence (IRES). […] All 12 clones analyzed were inducible and had little or no basal activity. […]
# HT20-6 cells, which contain the pLH-ZHWT×12-IL2-SEAP reporter gene, ZFHD1-3FKBP DNA binding domain and 1FRB-p65(361-550) activation domain stably integrated, were generated by first infecting HT1080L cells with SMTN-ZFHD1-3FKBP-packaged retrovirus and selecting in medium containing […] G418. […] Eight positive clones were analyzed by addition of rapamycin. […]
# [2] = system: SEAP target gene in HT1080 cells; test: Rapamycin-dependent transcriptional activation in transiently transfected cells (ZFHD1-3FKBP + 1FRB-p65 fusions, SEAP); format: cell-based, human
# Protocol: SEAP production was not detected in cells in which one or both of the transcription factor fusion plasmids was omitted, nor was it detected in the absence of added rapamycin. When all components were present, however, SEAP secretion was detectable at rapamycin concentrations as low as 0.5 nM. […] Similar results have been obtained when the same transcription factors were used to drive rapamycin-dependent activation of an hGH reporter gene or a stably integrated version of the SEAP reporter gene made by infection with a retroviral vector. It is difficult to determine the fold activation in response to rapamycin since levels of SEAP secretion in the absence of drug are undetectable, but it is clear that in this system there is at least a 1000-fold enhancement over background levels in the absence of rapamycin.
# HT1080 cells (ATCC CCL-121), derived from a human fibrosarcoma, were grown in MEM supplemented with non-essential amino acids and 10% Fetal Bovine Serum. Cells plated in 24-well dishes (Falcon, 6×10^4 cells/well) were transfected using Lipofectamine under conditions recommended by the manufacturer (GIBCO/BRL). A total of 300 ng of the following DNA was transfected into each well: 100 ng ZFHD×12-CMV-SEAP reporter gene, 2.5 ng pCGNN-ZFHD1-3FKBP or other DNA binding domain fusion, 5 ng pCGNN-1FRB-p65(361-550) or other activation domain fusion and 192.5 ng pUC118. In cases where the DNA binding domain or activation domain were omitted an equivalent amount of empty pCGNN expression vector was substituted. Following lipofection (for 5 hours) 500 μl medium containing the indicated amounts of rapamycin was added to each well. After 24 hours, medium was removed and assayed for SEAP activity as described (Spencer et al, Science 262:1019-24, 1993) using a Luminescence Spectrometer (Perkin Elmer) at 350 nm excitation and 450 nm emission. Background SEAP activity, measured from mock-transfected cells, was subtracted from each value.
# [3] = system: hGH reporter gene in transplanted transfected HT1080 cells; test: Rapamycin-dependent production of hGH in mice bearing transfected HT1080 cells; format: in vivo
# Protocol: To prepare transiently transfected HT1080 cells for injection into mice (See below), cells in 100 mm dishes (2×10^6 cells/dish) were transfected by calcium phosphate precipitation for 16 hours (Gatz, C., Kaiser, A. & Wendenburg, R. , 1991,Mol. Gen. Genet. 227, 229-237) with the following DNAs: […] of ZHWT×12-CMV-hGH, […] pCGNN-ZFHD1-3FKBP, […] pCGNN-1FRB-p65(361-550) and […] pUC118. Transfected cells were rinsed 2 times with phosphate buffered saline (PBS) and given fresh medium for 5 hours. To harvest for injection, cells were removed from the dish in Hepes Buffered Saline Solution containing 10 mM EDTA, washed with PBS/0.1% BSA/0.1% glucose and resuspended in the same at a concentration of 2×10^7 cells/ml.
# In Vivo Methods: Animals, husbandry, and general procedures. Male nu/nu mice were obtained from Charles River Laboratories (Wilmington, Mass.) and allowed to acclimate for five days prior to experimentation. They were housed under sterile conditions, were allowed free access to sterile food and sterile water throughout the entire experiment, and were handled with sterile techniques throughout.
# To transplant transiently transfected cells into mice, 2×10^6 transfected HT1080 cells, were suspended in […] PBS/0.1% BSA/0.1% glucose buffer, and administered into four intramuscular sites (approximately […] per site) on the haunches and flanks of the animals. Control mice received equivalent volume injections of buffer alone.
# (§1) Rapamycin was formulated for in vivo administration by dissolution in equal parts of N,N-dimethylacetamide and a 9:1 (v:v) mixture of polyethylene glycol (average molecular weight of 400) and polyoxyethylene sorbitan monooleate. Concentrations of rapamycin, in the completed formulation, were sufficient to allow for in vivo administration of the appropriate dose in a 2.0 ml/kg injection volume. The accuracy of the dosing solutions was confirmed by HPLC analysis prior to intravenous administration into the tail veins. Some control mice, bearing no transfected HT1080 cells, received 10.0 mg/kg rapamycin. In addition, other control mice, bearing transfected cells, received only the rapamycin vehicle.
# Blood was collected by either anesthetizing or sacrificing mice via CO2 inhalation. Anesthetized mice were used to collect […] of blood by cardiac puncture. The mice were revived and allowed to recover for subsequent blood collections. Sacrificed mice were immediately exsanguinated. Blood samples were allowed to clot for 24 hours, at 4° C., and sera were collected following centrifugation at 1000×g for 15 minutes. Serum hGH was measured by the Boehringer Mannheim non-isotopic sandwich ELISA (Cat No. 1 585 878). […] Absorbance was read at 405 nm with a 490 nm reference wavelength on a Molecular Devices microtiter plate reader. […]
# [4] = Circulating half-life and concentration in mice; format: in vivo
# Protocol: as §1
# To examine the kinetics of rapamycin control of hGH production, we treated animals with a single dose of rapamycin and then measured hGH levels at different times thereafter. […] The slower decay of serum hGH relative to rapamycin could reflect the presence of higher tissue concentrations of rapamycin in the vicinity of the implanted cells. Alternatively, persistence of hGH production from the engineered cells may be enhanced by the stability of hGH mRNA.
# Therefore, to ascertain the ability of this system to elevate and maintain circulating hGH concentrations, we performed an experiment in which animals received multiple doses of rapamycin at 16-hour intervals. This interval corresponds to the time required for hGH levels to peak and then decline approximately half-way. According to this regimen, rapamycin concentration is predicted to approach a steady-state trough concentration of 1.7 μg/ml after two doses. hGH levels should also approach a steady state trough concentration following the second dose. […] In particular, it is apparent that protein production is rapidly terminated upon withdrawal of drug.
# [5] = five i.v. 10.0 mg/kg doses at 16-hour intervals
Compound,SEAP production [1],enhancement of SEAP over background levels in the absence of rapamycin [2] [fold],rapamycin concentration of peak SEAP secretion ([2]; 24 hours) [nM],"lowest rapamycin concentration at which SEAP secretion was detectable ([2]; all components present, 24 hours) [nM]","half-life of hGH decline after the final rapamycin dose [3, 5] [h]","time hGH levels remained constant after the final dose [3, 5] [h]",half-life of decay of serum hGH concentration from its peak ([3]; single i.v. dose 10.0 mg/kg),time after treatment at which serum hGH remained detectable ([3]; single i.v. dose 10.0 mg/kg) [h],"predicted steady-state trough concentration of rapamycin ([4]; after two doses, 10.0 mg/kg i.v. at 16-hour intervals) [µg/mL]","half-life ([4]; nu/nu, mouse, in vivo, iv, in these animals (mice), i.v., read-out: half-life of rapamycin (converted)) [min]",half-life of hGH clearance from the circulation ([4]; in these animals (mice))
CO[C@H]1C[C@@H]2CC[C@@H](C)[C@@](O)(O2)C(=O)C(=O)N2CCCC[C@H]2C(=O)O[C@H]([C@H](C)C[C@@H]2CC[C@@H](O)[C@H](OC)C2)CC(=O)[C@H](C)/C=C(\C)[C@@H](O)[C@@H](OC)C(=O)[C@H](C)C[C@H](C)/C=C/C=C/C=C/1C [rapamycin],"over 90,000 arbitrary fluorescence units",≥ 1000,5,0.5,6.8,16,approximately 11 hours,42,1.7,276,
"hGH: human growth hormone, reporter gene product secreted by engineered cells",,,,,,,,,,,less than four
